Experimental data from patent US12398110B2, “Second generation inhibitors of mitochondrial permeability transition pore with improved plasma stability” (Oregon Health & Science University, priority 2019, dated 2025).

Key:
[1] = system: isolated mouse liver mitochondria; test: Oxygen consumption rate of isolated mitochondria (Seahorse XF24); assay type: biochemical
From the text: (§1) A thorough evaluation of toxicity is critical for advancing TR001 to in vivo studies. […] To more thoroughly examine mitochondrial toxicity, we analyzed oxygen consumption rates (OCRs) using the Seahorse XF24 extracellular flux analyzer. This allowed us to assess the effects of TR001 on mitochondrial respiration and ATP synthesis. […] Consequently respiratory control ratios (i.e., the ratios between ADP-stimulated and basal respiration) were not affected across the concentrations tested (FIG. 5B). Complex III inhibitor antimycin A shuts down the electron transport chain at the bc1 complex and was used to account for oxygen leak.
(§2) Measurement of respiration. Mitochondrial oxygen consumption of isolated mitochondria or HeLa cell monolayer was assessed with the Seahorse Extracellular Flux Analyzer XF24 (Seahorse Bioscience, Billerica, MA, USA). Isolated mouse liver mitochondria: Mitochondrial assay solution contained 220 mm mannitol, 70 mm sucrose, 25 mm MOPS-Tris, 10 mm Pi-Tris, 5 mm MgCl2, 1 mm EGTA-Tris, 0.2% fatty acid free BSA, 5 mm succinate and 2 μm rotenone, pH 7.4. Mitochondria (5 μg, suspended in 50 μL mitochondrial assay solution) were added to each well of an XF24 cell culture microplate, centrifuged at 2000 g for 20 min at 4° C. and then supplemented with 450 μL of mitochondrial assay solution containing 4 mm ADP to initiate the experiments.

mtPTP = test: Chemical activator (PhAsO, Diamide, Cu(OP)2, NEM) induced mitochondrial swelling; assay type: biochemical, mouse; conditions: 1.5 μm compound, 10 μm Ca2+ plus PhAsO, Cu(OP)2 or NEM
Procedure: […] graphs compound TR001 prevention of chemical activation induced mitochondrial swelling. FIG. 3A-3D) mouse liver mitochondria (0.25 mg/mL) were treated with 10 μM Ca^2+ only (traces a); 10 μm Ca^2+ and after 2 min of incubation with: FIG. 3A) 7 μm PhAsO, FIG. 3B) 2 mm Diamide, FIG. 3C), 7 μm Cu(OP)2, FIG. 3D), 2 mm NEM (traces b-d). In traces c and d additions were as in traces b except that mitochondria were also treated with 1.5 μmCsA (traces c) or TR001 (traces d). Traces are representative of n=4 independent preparations.
Based on the SAR studies and mouse plasma stability data, we decided to move forward with TR001 for more extensive biological characterization. As noted above, mtPTP is triggered by elevated levels of matrix Ca^2+ and potentiated by oxidative stress, leading to mitochondrial swelling. We therefore next tested the ability of TR001 to protect from oxidizing agent-triggered mtPTP opening. For this purpose, we used known chemical activators of the mtPTP that react with two distinct classes of redox sensitive thiols (—SH) and increase the propensity of mtPTP opening. […]

[2] = system: inner mitochondrial membrane potential; test: Rhodamine 123 (Rh123) uptake, mitochondrial membrane potential of isolated mouse liver mitochondria; assay type: biochemical
From the text: We next evaluated the mitochondrial toxicity of the new triazole analogs by testing their ability to interfere with accumulation of the membrane-permeant cationic fluorescent dye rhodamine 123 (Rh123). The mitochondrial uptake of positively charged Rh123 is driven by the inside negative IMM potential, which is built by the respiratory chain or maintained by ATP hydrolysis if certain conditions are met. […] It should be noted, however, that toxicity for these compounds only occurs at ˜10-1000-fold higher concentrations compared to mtPTP inhibition, providing a good therapeutic window.
Assessment of mitochondrial membrane potential. Mitochondrial membrane potential—to evaluate toxicity—of isolated mouse liver mitochondria was assessed based on fluorescence quenching of the cationic fluorescent dye Rh123 upon its accumulation into mitochondrial matrix due to inside negative membrane potential. Compounds that interfere with the build-up or maintenance of IMM potential would shift Rh123 fluorescence to higher values compared to DMSO treated samples. Uncoupler FCCP was used to account for nonspecific fluorescence. First, 0.1 mL of SAB was dispensed to a 96-well black assay plate. A set of wells also contained 0.8 μm FCCP (to prevent Rh123 uptake). The test wells contained a range of concentrations (in 1:2 serial dilutions) of the compounds of interest or 2% DMSO. Then, 0.1 mL of 0.5 mg/mL mitochondria in SAB devoid of respiratory substrates but supplemented with 0.8 μm Rh123 were added to all wells of the assay plate. Fluorescence intensity (ex/em 485/535 nm) was read on a Tecan Infinite F200 plate reader for 7 min and value at 5 min was considered for analysis. EC50s±SE were determined with OriginPro software by applying Hill1 function fitting algorithm on average concentration response data of n=3 independent preparations.

HeLa cells = test: Oxygen consumption rate of HeLa cell monolayers (Seahorse XF24); assay type: cell-based; conditions: ~2 h treatment
From the text: as §1
as §2, with “experiments. […]” for “experiments.”

Cc1ccc(Cl)cc1NC(=O)c1cn(-c2ccc(F)c(O)c2)nn1 [TR001, N-(5-chloro-2-methylphenyl)-1-(4-fluoro-3-hydroxyphenyl)-1H-1,2,3-triazole-4-carboxamide]
rates of oxygen consumption (ADP stimulation, oligomycin, FCCP) [1]: no effect | respiratory control ratios ([1]; across the concentrations tested): not affected | effect on oxidizing agent-triggered mtPTP opening (mtPTP): delayed mtPTP opening | interference with buildup of IMM potential (in words) ([2]; Rh123 uptake assay): did not interfere with IMM potential | EC50 ([2]; interference with Rh123 uptake to mitochondria, average ± SEM, n = 3, read-out: Rh123 uptake EC50): > 40 µM | mitochondrial dysfunction (OCR) in intact cells (HeLa cells): did not cause mitochondrial dysfunction
